Source: PubChem BioAssay (NCI)
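Grown in 96-well plates, cells were treated for 48 hours with each compound at five concentrations. Insufficient inhibition: endpoint recorded as highest concentration tested. The concentration for 50% growth inhibition is given as GI50. Definition used: TGI = concentration required for complete inhibition of growth.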

Experiments:
Test in all cases: inhibition of tumour cell growth, NCI panel, 48 h
SNB-19 CNS = tested on: SNB-19 CNS
SF-295 CNS = tested on: SF-295 CNS
SK-MEL-2 melanoma = tested on: SK-MEL-2 melanoma
NCI-H522 lung = tested on: NCI-H522 lung
U251 CNS = tested on: U251 CNS
SF-268 CNS = tested on: SF-268 CNS
NCI-H23 lung = tested on: NCI-H23 lung
SNB-75 CNS = tested on: SNB-75 CNS
SN12C renal = tested on: SN12C renal
COLO 205 colon = tested on: COLO 205 colon
BT-549 breast = tested on: BT-549 breast

Compound CN1C(=O)N(c2nc3ccccc3[nH]2)C(C)(C)C1=O has a TGI (SNB-19 CNS) of over 100 µM, a TGI (SF-295 CNS) of over 100 µM and a TGI (SK-MEL-2 melanoma) of over 100 µM. The TGI (NCI-H522 lung) was over 100 µM, the TGI (U251 CNS) was over 100 µM and the TGI (SF-268 CNS) was over 100 µM. For the same compound, the TGI (NCI-H23 lung) was over 100 µM, the TGI (SNB-75 CNS) was over 100 µM and the TGI (SN12C renal) was over 100 µM. It also gave a TGI (COLO 205 colon) of over 100 µM.

For CC(=O)c1cccc(Nc2nc3ccccc3c3[nH]c4ccccc4c23)c1, the TGI (SNB-19 CNS) was over 100 µM, the TGI (SF-295 CNS) was 15.9 µM and the TGI (BT-549 breast) was over 100 µM. It also gave a TGI (SK-MEL-2 melanoma) of 24.2 µM, a TGI (NCI-H522 lung) of 8.11 µM and a TGI (U251 CNS) of 16.4 µM. For the same compound, the TGI (SF-268 CNS) was 17.3 µM, the TGI (NCI-H23 lung) was over 100 µM and the TGI (SN12C renal) was over 100 µM. It also gave a TGI (COLO 205 colon) of 5.81 µM.

Compound CC1OC(CC2C=CCc3c(O)c4c(c(O)c32)C(=O)c2ccccc2C4=O)CC(NC(=O)C(F)(F)F)C1O (stereo unspecified) has a TGI (SNB-19 CNS) of 18.7 µM, a TGI (SF-295 CNS) of 18 µM and a TGI (SK-MEL-2 melanoma) of 30.2 µM. It also gave a TGI (NCI-H522 lung) of 44.9 µM, a TGI (U251 CNS) of 15.4 µM and a TGI (SF-268 CNS) of 22.2 µM. It also gave a TGI (NCI-H23 lung) of 20.7 µM, a TGI (SNB-75 CNS) of 5.8 µM and a TGI (SN12C renal) of 18.2 µM. For the same compound, the TGI (COLO 205 colon) was 53.4 µM.

In the case of N#CC(C#N)=Cn1c(=S)[nH]c2ccc([N+](=O)[O-])cc21, the TGI (SNB-19 CNS) is reported as over 100 µM, the TGI (SF-295 CNS) is reported as over 100 µM and the TGI (SK-MEL-2 melanoma) is reported as over 100 µM. For the same compound, the TGI (NCI-H522 lung) was over 100 µM, the TGI (U251 CNS) was over 100 µM and the TGI (SF-268 CNS) was over 100 µM. For the same compound, the TGI (NCI-H23 lung) was over 100 µM, the TGI (SNB-75 CNS) was over 100 µM and the TGI (SN12C renal) was over 100 µM. The TGI (COLO 205 colon) was over 100 µM.

With COC(=O)C(C#N)C1NC(=O)c2ccccc21 (stereo unspecified) the TGI (SNB-19 CNS) was over 100 µM, the TGI (SF-295 CNS) was over 100 µM and the TGI (NCI-H522 lung) was over 100 µM. For the same compound, the TGI (U251 CNS) was over 100 µM, the TGI (SF-268 CNS) was over 100 µM and the TGI (NCI-H23 lung) was over 100 µM. The TGI (SNB-75 CNS) was over 100 µM, the TGI (SN12C renal) was over 100 µM and the TGI (COLO 205 colon) was over 100 µM.

Compound O=c1c2ccccc2nc(N/N=C/c2ccc(Cl)cc2)n1-c1ccccc1 has a TGI (SNB-19 CNS) of over 100 µM, a TGI (SF-295 CNS) of over 100 µM and a TGI (SK-MEL-2 melanoma) of 77.2 µM. For the same compound, the TGI (NCI-H522 lung) was over 100 µM, the TGI (U251 CNS) was over 100 µM and the TGI (SF-268 CNS) was over 100 µM. For the same compound, the TGI (NCI-H23 lung) was over 100 µM, the TGI (SN12C renal) was over 100 µM and the TGI (COLO 205 colon) was over 100 µM.

CCCCCCCCCCCCCCCCCCOCC(O)CO (stereo unspecified) gave a TGI (SNB-19 CNS) of over 25 µM, a TGI (SF-295 CNS) of over 25 µM and a TGI (SK-MEL-2 melanoma) of over 25 µM. It also gave a TGI (NCI-H522 lung) of 20.9 µM, a TGI (U251 CNS) of over 25 µM and a TGI (SF-268 CNS) of over 25 µM. It also gave a TGI (NCI-H23 lung) of over 25 µM, a TGI (SNB-75 CNS) of 24.8 µM and a TGI (SN12C renal) of over 25 µM. For the same compound, the TGI (COLO 205 colon) was over 25 µM.

Compound Clc1ccc(N2N=C(c3cccc(Nc4ccncc4)c3)CC2c2ccc(Br)cc2)cc1 (stereo unspecified) has a GI50 (SF-295 CNS) of 1770 nM, a TGI (SF-295 CNS) of 3.2 µM and a GI50 (SNB-75 CNS) of 1410 nM. The TGI (SNB-75 CNS) was 2.9 µM, the GI50 (SN12C renal) was 1670 nM and the TGI (SN12C renal) was 3.21 µM. For the same compound, the GI50 (COLO 205 colon) was 2260 nM and the TGI (COLO 205 colon) was 4.76 µM.
